Measurements published in publication PMC1082716, “Blockade of chemokine-induced signalling inhibits CCR5-dependent HIV infection in vitro without blocking gp120/CCR5 interaction” (Retrovirology, 2005).
“Also recorded” adds a separate entry of the source.

Key:
HIV (IIIb) = HIV (IIIb) infection of Jurkat T-cells, p24gag immunofluorescence; format: cell-based; conditions: Peptide 3 100 μM, approximately 48 h after infection
Method: HIV infection of Jurkat T-cells was also monitored by high sensitivity quantitative immunofluoresence detection of viral p24^gag expression. Jurkat cells were infected with HIV in the presence or absence of Peptide 3 (100 μM) or SDF1α (100 ng/ml) as described above. Approximately 48 h after infection, the cells were attached to glass slides using a cytospin and then fixed by immersion in ice-cold 70% ethanol for 90 seconds. Expression of p24^gag was determined using quantitative immunofluoresence as previously described, except that the primary antibody was post-fixed to the section using paraformaldehyde to increase the sensitivity of the technique (see Methods). Viral infectivity was expressed as the number of cells stained for p24^gag expressed as a proportion of the total number of cells (detected using Hoechst 33342 nuclear dye). […]
Jurkat cells following HIV infection were attached to 8-well chamber slides (Becton-Dickinson) by spinning the slides using a plate rotor in a Labofuge centrifuge (Heraeus) at 3,000 × g for 5 minutes. […] A threshold was then applied to each image which was the lowest threhold that detected <1% of the pixels of an image of uninfected cells stained under identical conditions. The number of objects exceeding this threshold in each field of view were counted. […]

[1] = test system: SDF-1α induced chemotaxis; assay: SDF-1α induced chemotaxis (ChemoTx transwell); format: cell-based; conditions: 100 ng/ml SDF1α; various concentrations of inhibitor in both compartments; 5 × 10^4 cells per well; 2 h, 37°C; MTT; triplicate
Method: Figure 2 Effect of Peptide 3 on gp120:V3 loop peptide binding to cells. (a) The binding of 100 μM N-terminal biotinylated gp120:V3(IIIb) to THP-1 cells was measured in the presence of various concentrations of peptide 3. […] (b) Chemotaxis in response to 100 ng/ml SDF1α was measured in the presence of various concentrations of peptide 3. […] (e) As for (a) except that the effect of Peptide 3 on the binding of gp120:V3(BaL) to THP-1 cells was determined. (f) As for (b) except that the effect of Peptide 3 on chemotaxis induced by 25 ng/ml MIP1α was determined. All binding reactions were performed with 10^6 cells in 100 μl of binding medium at 4°C. Chemotaxis assays were performed with 5 × 10^4 cells per well. Values are mean ± SEM of triplicate determinations.
Chemotaxis experiments were performed essentially as previously described, using the ChemoTx disposable 96-well transwell migration plates, with PVP-free membrane (6 μm pore size). Chemoattractant (lower compartment) and cells upper compartment) were suspended in Gey's Balanced salt solution + 1 mg/ml BSA. […] Migration was allowed to proceed for 2 hours at 37°C. […] Each condition was determined in triplicate, and the number of cells migrating in the absence of chemoattractant was subtracted to determine the chemokine-dependent chemotaxis which was reported.

Sequence: EICADPKQKWVQ [Peptide 3]
- Effect on viral infectivity (p24gag, in words) (HIV (IIIb)): no effect
- Effect on SDF-1α induced chemotaxis [1]: powerfully inhibited; also recorded: efficiently blocks
